Assay results reported in patent US20230136562A1, “SPIROUREA DERIVATIVES” (Idorsia Pharmaceuticals Ltd, priority 2020, published 2023).
Read-outs that look alike come from different tables or passages of the source. One block for each compound: values may come before it.

Tests used:
[1] = target: T1, Kv7.2/7.3 (Homo sapiens, UniProt O43525+O43526); experiment: Kv7.2/3 assay (FLIPR potassium assay, agonist mode); assay type: cell-based; details: Kv7.2/7.3 activation; HEK293 cells, human KCNQ2 and KCNQ3
T1 construct: expressed in transfected cells; host or cells: HEK293
Procedure: HEK293 cells were stably transfected with the appropriate ion channel cDNA(s) (human KCNQ2 and KCNQ3 genes). Cells were cultured in Dulbecco's Modified Eagle Medium/Nutrient mixture F-12 (D-MEM/F-12) supplemented with 10% fetal bovine serum, 100 U/mL penicillin G sodium, 100 µg/mL streptomycin sulfate and selection antibiotics. FLIPR Test Procedure: For FLIPR assay, cells were plated in 384-well black clear-bottomed microtiter plates (BD Biocoat Poly-D-Lysine Multiwell Cell Culture Plate) at 15'000 to 30'000 cells per well. Cells were incubated at 37° C. overnight or until cells reached sufficient density in the wells (near confluent monolayer) to use in fluorescence assays. […] Assays were performed with the FLIPR potassium assay kit (Molecular Devices) according to the manufacturer's instructions. Dye-loading: Growth media was removed and replaced with 20 μL of dye loading buffer for 60 min at room temperature. FLIPR Recording (agonist mode): Stock solutions of test compounds were prepared at a concentration of 33.3 mM in DMSO. 5 μL of 5× concentrated test, vehicle, or control compounds solutions prepared in the stimulation buffer (K^+-free buffer with 5 mM TI^+) were added to each well and fluorescence recording was continued for 5 min. The agonist effect (EC50 and % effect) of test or control compounds on Kv7 channels was determined as follows: Raw data was exported using Screenworks® 4.2 software and the fluorescence traces were analysed using Microsoft Excel (Microsoft Corp., Redmond, Wash.). The test compounds responses were expressed as % of maximum response of the control compound Flupirtine (Sigma-Aldrich), which was tested at concentrations ranging from 0.03 to 100 μM. Concentration-response data were fitted to a Hill equation. Non-linear least squares fits were made assuming a simple binding model. If appropriate, fits were weighted by the standard deviation. No assumptions about the fit parameters were made; the fit parameters were determined by the algorithm.

[2] = test system: primary neuronal cultures from embryonic rat brains; experiment: Rat oscillation assay (FLIPR, neuronal calcium oscillations); assay type: cell-based
Procedure, shortened: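 Cortical neurons from E18 Wistar rat embryos, cultured 8–10 days at high density, loaded with 1 μM Fluo-8 AM; calcium oscillations recorded by FLIPR once per second in Mg-free HBSS with 2 mM CaCl2, 20 mM HEPES, pH 7.4. Two acquisitions ("Acute", 500 sec, compound added at 250 sec; "20 min"), ± Kv7 blocker XE-991.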

[3] = Rattus norvegicus, 20 min, AUC of fluorescence measured 20 min after compound addition, read-out: FLIPR: IC50 [nM] 20 min
[4] = Rattus norvegicus, Acute phase, ratio of AUC fluorescence before and after compound addition, read-out: FLIPR: IC50 [nM] acute

- EC50 [1]: 30 nM
SMILES: O=C(NCc1cccc(C(F)(F)F)c1)NC1CC2(CCC2)C1 [Example 1, 1-Spiro[3.3]hept-2-yl-3-(3-trifluoromethyl-benzyl)-urea]
- IC50 [2, 3]: 20 nM
- IC50 [2, 4]: 27 nM

- EC50 [1]: 30 nM
SMILES: C[C@H](NC(=O)NC1CC2(CCC2)C1)c1cccc(C(F)(F)F)c1 (single isomer, unassigned) [Example 175]
- IC50 [2, 3]: 5.5 nM
- IC50 [2, 4]: 9 nM

- EC50 [1]: 1.5 nM
SMILES: O=C(NCc1cccc(C2(C(F)(F)F)CC2)c1)NC1CC2(CCC2)C1 [Example 37, 1-Spiro[3.3]hept-2-yl-3-[3-(1-trifluoromethyl-cyclopropyl)-benzyl]-urea]
- IC50 [2, 3]: 8.1 nM
- IC50 [2, 4]: 10 nM

- EC50 [1]: 1.5 nM
SMILES: O=C(NCc1ccnc(OCC(F)(F)F)c1)NC1CC2(CCC2)C1 [Example 103, 1-Spiro[3.3]hept-2-yl-3-[2-(2,2,2-trifluoro-ethoxy)-pyridin-4-ylmethyl]-urea]
- IC50 [2, 3]: 7.4 nM
- IC50 [2, 4]: 4.8 nM

- EC50 [1]: 7 nM
SMILES: C[C@H](NC(=O)NC1CC2(CCC2)C1)c1ccc(F)c(OCC(F)(F)F)c1 (single isomer, unassigned) [Example 177]
- IC50 [2, 3]: 24 nM
- IC50 [2, 4]: 22 nM

- EC50 [1]: 42 nM
SMILES: Cc1nc(CNC(=O)NC2CC3(CCC3)C2)cc(OCC(F)(F)F)n1 [Example 60, 1-[2-Methyl-6-(2,2,2-trifluoro-ethoxy)-pyrimidin-4-ylmethyl]-3-spiro[3.3]hept-2-yl-urea]
- IC50 [2, 3]: 144 nM
- IC50 [2, 4]: 109 nM

SMILES: CC(NC(=O)NC1CC2(CCC2)C1)c1ccc(Cl)c(OCC(F)(F)F)c1 (racemic) [Example 27, (±)-1-{1-[4-Chloro-3-(2,2,2-trifluoro-ethoxy)-phenyl]-ethyl}-3-spiro[3.3]hept-2-yl-urea]
- IC50 [2, 3]: 169 nM
- IC50 [2, 4]: 278 nM

SMILES: CC(NC(=O)NC1CC2(CCC2)C1)c1cc(C(F)(F)F)ccc1Br (racemic) [Example 19, (±)-1-[1-(2-Bromo-5-trifluoromethyl-phenyl)-ethyl]-3-spiro[3.3]hept-2-yl-urea]
- IC50 [2, 3]: 274 nM
- IC50 [2, 4]: 337 nM

SMILES: O=C(NCc1cccc(S(F)(F)(F)(F)F)c1)NC1CC2(CC2)C1 [Example 130, 1-(3-(pentafluoro-λ^6-sulfaneyl)benzyl)-3-(spiro[2.3]hexan-5-yl)urea]
- IC50 [2, 3]: 42 nM
- IC50 [2, 4]: 30 nM

SMILES: COc1c(CNC(=O)NC2CC3(CCC3)C2)cccc1C(F)(F)F [Example 22, 1-(2-Methoxy-3-trifluoromethyl-benzyl)-3-spiro[3.3]hept-2-yl-urea]
- IC50 [2, 3]: 268 nM
- IC50 [2, 4]: 275 nM

SMILES: Cc1nc(OCC(F)(F)F)cc(C(CO)NC(=O)NC2CC3(CCC3)C2)n1 (racemic) [Example 82, (±)-1-{2-Hydroxy-1-[2-methyl-6-(2,2,2-trifluoro-ethoxy)-pyrimidin-4-yl]-ethyl}-3-spiro[3.3]hept-2-yl-urea]
- IC50 [2, 3]: 59 nM
- IC50 [2, 4]: 66 nM

SMILES: NC(=O)C(NC(=O)NC1CC2(CCC2)C1)c1cccc(C(F)(F)F)c1 (racemic) [Example 62, (±)-2-(3-Spiro[3.3]hept-2-yl-ureido)-2-(3-trifluoromethyl-phenyl)-acetamide]
- IC50 [2, 3]: 65 nM
- IC50 [2, 4]: 50 nM

SMILES: CN(C)CC(NC(=O)NC1CC2(CCC2)C1)c1cccc(OCC(F)(F)F)n1 (racemic) [Example 48, (±)-1-{2-Dimethylamino-1-[6-(2,2,2-trifluoro-ethoxy)-pyridin-2-yl]-ethyl}-3-spiro[3.3]hept-2-yl-urea]
- IC50 [2, 3]: 138 nM
- IC50 [2, 4]: 510 nM

SMILES: COCC(c1ccnc(OCC(F)(F)F)c1)N(C)C(=O)NC1CC2(CCC2)C1 (racemic) [Example 50, (±)-1-{2-Methoxy-1-[2-(2,2,2-trifluoro-ethoxy)-pyridin-4-yl]-ethyl}-1-methyl-3-spiro[3.3]hept-2-yl-urea]
- IC50 [2, 3]: 118 nM
- IC50 [2, 4]: 80 nM

SMILES: CC(Oc1nccc(CNC(=O)NC2CC3(CCC3)C2)n1)C(F)(F)F (racemic) [Example 118, (±)-1-Spiro[3.3]hept-2-yl-3-[2-(2,2,2-trifluoro-1-methyl-ethoxy)-pyrimidin-4-ylmethyl]-urea]
- IC50 [2, 3]: 81 nM
- IC50 [2, 4]: 116 nM

SMILES: COCCOCC(NC(=O)NC1CC2(CCC2)C1)c1cccc(C(F)(F)F)c1 (racemic) [Example 71, (±)-1-[2-(2-Methoxy-ethoxy)-1-(3-trifluoromethyl-phenyl)-ethyl]-3-spiro[3.3]hept-2-yl-urea]
- IC50 [2, 3]: 105 nM
- IC50 [2, 4]: 92 nM

SMILES: CC(NC(=O)NC1CC2(CCC2)C1)c1cccc2c1OC(F)(F)O2 (racemic) [Example 47, (±)-1-[1-(2,2-Difluoro-benzo[1,3]dioxol-4-yl)-ethyl]-3-spiro[3.3]hept-2-yl-urea]
- IC50 [2, 3]: 222 nM
- IC50 [2, 4]: 103 nM

SMILES: N#CCC(NC(=O)NC1CC2(CCC2)C1)c1cccc(C(F)(F)F)c1 (racemic) [Example 67, (±)-1-[2-Cyano-1-(3-trifluoromethyl-phenyl)-ethyl]-3-spiro[3.3]hept-2-yl-urea]
- IC50 [2, 3]: 11 nM
- IC50 [2, 4]: 10 nM

SMILES: O=C(NC1CC2(CCC2)C1)NC(c1cccc(C(F)(F)F)c1)c1nc[nH]n1 (stereo not shown) [Example 56, 1-Spiro[3.3]hept-2-yl-3-[(1H-[1,2,4]triazol-3-yl)-(3-trifluoromethyl-phenyl)-methyl]-urea]
- IC50 [2, 3]: 9.7 nM
- IC50 [2, 4]: 27 nM

- EC50 [1]: 161 nM
SMILES: O=C(NCc1ccnc(NCC(F)(F)F)c1)NC1CC2(CCC2)C1 [Example 116, 1-Spiro[3.3]hept-2-yl-3-[2-(2,2,2-trifluoro-ethylamino)-pyridin-4-ylmethyl]-urea]
- IC50 [2, 3]: 609 nM
- IC50 [2, 4]: 530 nM

SMILES: COCC(Oc1cc(CNC(=O)NC2CC3(CCC3)C2)ccn1)C(F)(F)F (single isomer, unassigned) [Example 171, 1-Spiro[3.3]hept-2-yl-3-[2-(2,2,2-trifluoro-1-methoxymethyl-ethoxy)-pyridin-4-ylmethyl]-urea]
- IC50 ([2]; AUC of fluorescence measured 20 min after compound addition, read-out: FLIPR: IC50 [nM] 20 min): 377 nM
- IC50 ([2]; Acute phase, ratio of AUC fluorescence before and after compound addition, read-out: FLIPR: IC50 [nM] acute): 252 nM

SMILES: O=C(NC1CC2(CC2)C1)NC(c1cccc(C(F)(F)F)c1)C(F)F (racemic) [Example 146, (±)-1-[2,2-Difluoro-1-(3-trifluoromethyl-phenyl)-ethyl]-3-spiro[2.3]hex-5-yl-urea]
- IC50 [2, 3]: 6.6 nM
- IC50 [2, 4]: 4.2 nM

SMILES: O=C(NC1CC2(CCC2)C1)NC(CC(F)F)c1cccc(C(F)(F)F)c1 (racemic) [Example 84, (±)-1-[3,3-Difluoro-1-(3-trifluoromethyl-phenyl)-propyl]-3-spiro[3.3]hept-2-yl-urea]
- IC50 [2, 3]: 4.2 nM
- IC50 [2, 4]: 5.1 nM

SMILES: O=C(NCc1cccc(S(F)(F)(F)(F)F)c1)NC1CC2(CCC2)C1 [Example 35, 1-(3-(pentafluoro-λ^6-sulfaneyl)benzyl)-3-(spiro[3.3]heptan-2-yl)urea]
- IC50 [2, 3]: 24 nM
- IC50 [2, 4]: 22 nM

SMILES: O=C(NC1CC2(CC2)C1)NC(CO)c1cc(OCC(F)(F)F)ncn1 (racemic) [Example 122, (±)-1-{2-Hydroxy-1-[6-(2,2,2-trifluoro-ethoxy)-pyrimidin-4-yl]-ethyl}-3-spiro[2.3]hex-5-yl-urea]
- IC50 [2, 3]: 658 nM
- IC50 [2, 4]: 339 nM

SMILES: C[C@H](NC(=O)NC1CC2(CCC2)C1)c1cc(C(F)(F)F)ccc1Br (single isomer, unassigned) [Example 190]
- IC50 [2, 3]: 200 nM
- IC50 [2, 4]: 286 nM
- activity compared with the (R) enantiomer ([2]; assay not given): more active than the (R) enantiomer

SMILES: O=C(NC1CC2(CCC2)C1)NC(CCO)c1cccc(OCC(F)(F)F)c1 (racemic) [Example 88, (±)-1-{3-Hydroxy-1-[3-(2,2,2-trifluoro-ethoxy)-phenyl]-propyl}-3-spiro[3.3]hept-2-yl-urea]
- IC50 [2, 3]: 28 nM
- IC50 [2, 4]: 45 nM

SMILES: CC(NC(=O)NC1CC2(CC2)C1)c1cc(OCC(F)(F)F)ccc1F (racemic) [Example 129, (±)-1-{1-[2-Fluoro-5-(2,2,2-trifluoro-ethoxy)-phenyl]-ethyl}-3-spiro[2.3]hex-5-yl-urea]
- IC50 [2, 3]: 254 nM
- IC50 [2, 4]: 212 nM
